Test results from patent publication US20120027777A1, “LJUNGAN VIRUS WITH IMPROVED REPLICATION CHARACTERISTICS” (APODEMUS AB, priority 2009, published 2012).

System: GMK cells
Assay: Cellular DNA degradation by electrophoresis
Format: cell-based, Green Monkey
Conditions: uninfected GMK cells, 16 h treatment, 0.5 μM, positive control
Protocol: Degradation of chromosomal DNA is one of the hallmarks of apoptotic cells. DNA degradation in GMK cells infected with 145SL and 145SLG as well as recombinant derivatives of these viruses was assayed as previously described by with some minor modifications. Briefly, subconfluent GMK cells in T25-flasks were infected with 0.5 mL of virus lysates generated from viral cDNA clones by transfection and subsequent blind passage as previously described. […] Lysis of cells was induced using 0.2% Triton X-100, 0.5 mM EDTA in 10 mM Tris-HCl, pH 7.4. Fragmented chromatin was released from cell nuclei by vortexing. The nucleic components were separated (20,000×g for 10 min at 4° C.) and the nucleic acids in the supernatant fraction were precipitated. After precipitation, the nucleic acids were washed in 70% ethanol and dissolved in 50 μl TE buffer (1 mM EDTA, 10 mM Tris-HCl, pH 7.4). The RNA fraction of isolated nucleic acids was degraded using RNase A (10 μg/ml for 30 min at 37° C.). Finally, 1 μg isolated nucleic acids of each sample were separated by electrophoresis in a 1.5% agarose gel. Apoptosis in control cells was induced by a 16 h treatment of GMK cells with 0.5 μM staurosporine (Sigma), a broad spectrum protein kinase inhibitor [10]. The nucleic acids from these control cells were otherwise treated in the same way as described for cells infected with LV.

CN[C@@H]1C[C@H]2O[C@@](C)([C@@H]1OC)n1c3ccccc3c3c4c(c5c6ccccc6n2c5c31)C(=O)NC4 [staurosporine]
DNA fragmentation: expected processing of the nuclear DNA
